Among the data in patent US10336684B2, “Phenyl-(aza)cycloalkyl carboxylic acid GPR120 modulators” (BRISTOL-MYERS SQUIBB COMPANY, priority 2014, dated 2019) are EC50 values, retold here.

pEC50: −log10 of the molar value.

Broadly, the pEC50 is −log10 of the EC50, conventionally taken in molar units. A lower pEC50 goes with a large EC50.

Chain of human GPR120 (Q5NUL3 whole entry): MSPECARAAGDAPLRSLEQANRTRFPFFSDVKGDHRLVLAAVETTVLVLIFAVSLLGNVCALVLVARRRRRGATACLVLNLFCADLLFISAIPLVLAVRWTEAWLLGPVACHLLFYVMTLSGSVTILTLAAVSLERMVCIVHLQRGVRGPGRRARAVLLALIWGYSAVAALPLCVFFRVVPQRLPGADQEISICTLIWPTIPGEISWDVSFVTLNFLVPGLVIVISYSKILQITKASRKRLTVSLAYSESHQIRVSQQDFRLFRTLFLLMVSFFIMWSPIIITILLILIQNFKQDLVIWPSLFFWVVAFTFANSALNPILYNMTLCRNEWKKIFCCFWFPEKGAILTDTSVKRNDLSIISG

In this assay the target is human GPR120 (Homo sapiens (Human), UniProt Q5NUL3). Kind of assay: GPR120 pERK AlphaScreen SureFire assay (human GPR120 pERK assay). To be noted: CHOA12 or CHO-K1 cells stably transfected with short form of human GPR120, 100% = 50 μM linolenic acid. It counts as cell-based. An excerpt:
GPR120 activity was monitored by measuring phosphorylation of ERK (pERK), since G protein receptors are known to activate the ERK signaling cascade either directly and/or through recruitment of arrestin that serves as a scaffold for downstream signaling events.
GPR120 pERK AlphaScreen SureFire Assay
The human and mouse GPR120-mediated intracellular phosphorylated ERK assays were established using CHOA12 cells stably transfected with the short form of human or mouse GPR120 receptor. Cells were cultured in growth medium consisting of F-12 media (Invitrogen Cat. #11765) with 5% Charcoal/Dextran FBS (Invitrogen Cat. #12676-029), 500 μg/mL GENETICIN® (Life Technologies Cat. #10131-027) and 250 μg/mL Zeocin (Invitrogen Cat. #R250-01). Cells were cryo preserved at a concentration of 2×10^7 cells/mL, in 90% Charcoal/Dextran FBS and 10% DMSO, and frozen in liquid nitrogen at a low passage number.
For the pERK assay, 2×10^7 cells/mL cryopreserved human and mouse cells were thawed rapidly in a 37° C. water bath and added to a T-225 flask containing 50 mL growth medium. The flasks were placed in a tissue culture incubator overnight (37° C., 5% CO2). The next day, cells were harvested with trypsin (Gibco Cat. #25300-054), resuspended in serum-containing growth medium and counted using a Cellometer and volume adjusted to a concentration of 0.6×10^6 cells/mL. Cells were plated into 384-well clear bottom tissue culture plates (BD Cat. #353962) at 50 μL/well, for a density of 30,000 cells/well using a MULTIDROP® and incubated for 16-18 hours (overnight) at 37° C. with 5% CO2. The next day, cells were serum starved in 30 μL of F-12 media without any serum or antibiotics for 2 hours at 37° C.
Test compounds were 3-fold, 11-point serially diluted in DMSO in a REMP assay plate (Matrix Cat. #4307) by Tecan and 5 μL was transferred into an ECHO source plate (Labcyte Cat. #LC-0200). Cells were then stimulated with 50 nL of compound dilutions using ECHO liquid handler for 7 minutes at 37° C. Compounds ranged from final assay concentrations of 33.33 μM to 0.56 nM.
The media was then dumped and cells lysed with 20 μL of 1× Lysis buffer from the AlphaScreen SureFire Phospho-ERK 1/2 Kit (Perkin Elmer Cat. #6760617M). The lysis buffer was diluted 5-fold with water before use. The plate was agitated on a shaker for 10 minutes after which 2 μL was transferred into a 384-well white proxiplate (Perkin Elmer Cat. #6008289). The SureFire assay reagent mix was prepared by mixing 60 parts Reaction Buffer, 10 parts Activation Buffer, 1 part Donor Beads, 1 part Acceptor Beads (Perkin Elmer Cat. #TGRES10K). 3.5 μL/well of this reagent mix was manually added to the proxiplate with a multichannel pipettor. Plates were spun down at 1000 rpm for 2 minutes, followed by light-protected incubation at room temperature for 2 hours. The plates were read on the Alpha-technology compatible Envision multilabel plate reader using AlphaScreen protocol according to manufacturer's specifications. The agonist effect of compounds was expressed as 100×(average sample-average blank)/(average total−average blank) where sample is the luminescence activity in the presence of test compound, blank is equal to the luminescence activity in the presence of DMSO control and the total is signal induced by 50 μM linolenic acid as reference compound. Activation data for the test compound over a range of concentrations was plotted as percentage activation of the test compound (100%=maximum response). After correcting for background, EC50 values were determined. The EC50 is defined as the concentration of test compound which produces 50% of the maximal response and was quantified using the 4 parameter logistic equation to fit the data.
The human and mouse GPR120-mediated intracellular phosphorylated ERK assays were also established using CHO-K1 cells stably transfected with the short form of human or mouse GPR120 receptor. […]
Take `O=C(O)CCCCc1ccc(C2CCCCC(Oc3cccc(Cl)c3)C2)cc1` (stereo not drawn) [Example 45]: the pEC50 was 5.69.
`O=C(O)CCCCc1ccc(C2CCCCC(Oc3ccccc3)C2)cc1` (single isomer, unassigned) [Example 12, 5-(4-(3-Phenoxycycloheptyl)phenyl)pentanoic acid]: the negative-log EC50 (pEC50) is 6.51.
The figure for `O=C(O)[C@@H]1C[C@H]1CCc1ccc(N2CCC[C@H](c3ccccc3)C2)cc1` [Example 56] is 5.32.
The figure for `O=C(O)CCCCc1ccc(N2CCC(Oc3ccccc3)CC2)cc1` [Example 58] is 5.39; for `O=C(O)[C@@H]1C[C@H]1CCc1ccc(N2CCC[C@@H](c3ccccc3)C2)cc1` [Example 55] it is 5.20; for `O=C(O)CCCCc1ccc(C2CCCCC(Oc3ccccc3Cl)C2)cc1` (stereo not drawn) [Example 46] it is 5.51.
With `O=C(O)[C@H]1C[C@@H]1CCc1ccc([C@@H]2CCC[C@H](Oc3ccccc3)C2)cc1` (single isomer, unassigned) [Example 7] the figure was 6.04; with `O=C(O)[C@H]1C[C@@H]1CCc1ccc(N2CCC[C@@H](c3ccccc3)C2)cc1` [Example 53], 5.44.
`O=C(O)COCCc1ccc(C2CCCCC(Oc3ccccc3)C2)cc1` (stereo not drawn) [Example 14, 2-(4-(3-Phenoxycycloheptyl)phenethoxy)acetic acid] had a pEC50 of 6.20.
With `O=C(O)COCCc1ccc([C@@H]2CCC[C@H](Oc3ccccc3)C2)cc1` (single isomer, unassigned) [Example 6] the figure was 6.74; with `O=C(O)[C@@H]1C[C@H]1CCc1ccc(N2CCCC(Oc3ccccc3)CC2)cc1` (stereo partly drawn) [Example 62], 4.99.
The figure for `O=C(O)COCCc1ccc(N2CCC(Oc3ccccc3)C2)cc1` (stereo not drawn) [Example 59] is 5.28; for `O=C(O)[C@H]1C[C@@H]1CCc1ccc([C@H]2CCCC(Oc3ccccc3)C2)cc1` (single isomer, unassigned) [Example 8] it is 5.84.
With `O=C(O)[C@H]1C[C@@H]1COc1ccc([C@@H]2CCC[C@@H](Oc3ccccc3)C2)cc1` (racemic) [Example 42] the figure was below 4.49; with `CC(C)OC1CCC(c2ccc(CCCCC(=O)O)cc2)C1` (stereo not drawn) [Example 47], 5.42.
